Test results from ChEMBL document CHEMBL1201862, “PubChem BioAssay data set” (2004).
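In this assay, cells in 96-well plates receive the compound at five concentrations for 48 hours. Endpoints are linearly interpolated between the surrounding concentrations. GI50 marks 50% less growth.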 Activity calls are given as the source filed them. Rule as the data show it: active = GI50 up to about 1.1 µM and inactive = higher.

Key:
Experiment in all cases: DTP human tumour cell line panel, 48 h
[1] = system: 786-0
[2] = system: A498
[3] = system: A549
[4] = system: ACHN
[5] = system: CAKI-1
[6] = system: CCRF-CEM
[7] = system: COLO 205
[8] = system: DU-145
[9] = system: EKVX
[10] = system: HCC 2998
[11] = system: HCT-116
[12] = system: HCT-15
[13] = system: HL-60
[14] = system: HOP-62
[15] = system: HOP-92
[16] = system: HT-29
[17] = system: Hs-578T
[18] = system: IGROV-1
[19] = system: K562
[20] = system: KM12
[21] = system: LOX IMVI
[22] = system: M14
[23] = system: MCF7
[24] = system: MDA-MB-435
[25] = system: MDA-N
[26] = system: MOLT-4
[27] = system: NCI-H226
[28] = system: NCI-H23
[29] = system: NCI-H460
[30] = system: NCI-H522
[31] = system: NCI/ADR-RES
[32] = system: OVCAR-3
[33] = system: OVCAR-4
[34] = system: OVCAR-5
[35] = system: OVCAR-8
[36] = system: RPMI-8226
[37] = system: RXF 393
[38] = system: SF-268
[39] = system: SF-295
[40] = system: SF-539
[41] = system: SK-MEL-28
[42] = system: SK-MEL-5
[43] = system: SK-OV-3
[44] = system: SN12C
[45] = system: SNB-75
[46] = system: SR
[47] = system: SW-620
[48] = system: T47D
[49] = system: TK-10
[50] = system: U-251
[51] = system: UACC-257
[52] = system: UACC-62
[53] = system: UO-31
[54] = system: MDA-MB-231
[55] = system: Malme-3M
[56] = system: PC-3
[57] = system: SK-MEL-2
[58] = system: SNB-19

O=C(CC(C(=O)c1ccsc1)c1ccccc1)c1ccccc1 (stereo unspecified)
GI50 [1]: > 100 µM (inactive) | GI50 [2]: 25.8 µM (inactive) | GI50 [3]: 28 µM (inactive) | GI50 [4]: > 100 µM (inactive) | GI50 [5]: > 100 µM (inactive) | GI50 [6]: 69.2 µM (inactive) | GI50 [7]: > 100 µM (inactive) | GI50 [8]: > 100 µM (inactive) | GI50 [9]: > 100 µM (inactive) | GI50 [10]: > 100 µM (inactive) | GI50 [11]: 75 µM (inactive) | GI50 [12]: 83.9 µM | GI50 [13]: 0.484 µM (active) | GI50 [14]: > 100 µM (inactive) | GI50 [15]: > 100 µM (inactive) | GI50 [16]: > 100 µM (inactive) | GI50 [17]: > 100 µM (inactive) | GI50 [18]: > 100 µM (inactive) | GI50 [19]: > 100 µM (inactive) | GI50 [20]: 49.9 µM (inactive) | GI50 [21]: > 100 µM (inactive) | GI50 [22]: > 100 µM (inactive) | GI50 [23]: > 100 µM (inactive) | GI50 [24]: 54.2 µM (inactive) | GI50 [25]: > 100 µM (inactive) | GI50 [26]: > 100 µM (inactive) | GI50 [27]: 74.1 µM (inactive) | GI50 [28]: 0.0217 µM (active) | GI50 [29]: > 100 µM (inactive) | GI50 [30]: 34.8 µM (inactive) | GI50 [31]: 18.7 µM (inactive) | GI50 [32]: > 100 µM (inactive) | GI50 [33]: 6.5 µM (inactive) | GI50 [34]: > 100 µM (inactive) | GI50 [35]: > 100 µM (inactive) | GI50 [36]: > 100 µM (inactive) | GI50 [37]: > 100 µM (inactive) | GI50 [38]: > 100 µM (inactive) | GI50 [39]: 76.9 µM (inactive) | GI50 [40]: > 100 µM (inactive) | GI50 [41]: 7.28 µM (inactive) | GI50 [42]: 43.2 µM (inactive) | GI50 [43]: > 100 µM (inactive) | GI50 [44]: > 100 µM (inactive) | GI50 [45]: > 100 µM (inactive) | GI50 [46]: > 100 µM (inactive) | GI50 [47]: > 100 µM (inactive) | GI50 [48]: 20.2 µM (inactive) | GI50 [49]: > 100 µM (inactive) | GI50 [50]: 95.9 µM (inactive) | GI50 [51]: > 100 µM (inactive) | GI50 [52]: 71.1 µM (inactive) | GI50 [53]: > 100 µM (inactive)

CC(=O)c1c(-c2cccc3ccccc23)c(C#N)c(=S)n(C2OC(CO)C(O)C(O)C2O)c1-c1ccccc1 (stereo unspecified)
GI50 [9]: 0.0509 µM (active) | GI50 [15]: 13.5 µM (inactive)

CC(C)(C)C(=O)C(C(=O)c1ccccc1)C(=O)C(C)(C)C
GI50 [1]: > 100 µM (inactive) | GI50 [2]: > 100 µM (inactive) | GI50 [3]: > 100 µM (inactive) | GI50 [4]: > 100 µM (inactive) | GI50 [5]: > 100 µM (inactive) | GI50 [6]: > 100 µM (inactive) | GI50 [7]: > 100 µM (inactive) | GI50 [8]: > 100 µM (inactive) | GI50 [9]: > 100 µM (inactive) | GI50 [10]: > 100 µM (inactive) | GI50 [11]: 56.1 µM (inactive) | GI50 [12]: > 100 µM | GI50 [13]: > 100 µM (inactive) | GI50 [14]: > 100 µM (inactive) | GI50 [15]: > 100 µM (inactive) | GI50 [16]: > 100 µM (inactive) | GI50 [17]: > 100 µM (inactive) | GI50 [18]: > 100 µM (inactive) | GI50 [19]: > 100 µM (inactive) | GI50 [20]: > 100 µM (inactive) | GI50 [21]: > 100 µM (inactive) | GI50 [22]: > 100 µM (inactive) | GI50 [23]: > 100 µM (inactive) | GI50 [54]: 98.2 µM (inactive) | GI50 [24]: > 100 µM (inactive) | GI50 [25]: > 100 µM (inactive) | GI50 [26]: > 100 µM (inactive) | GI50 [55]: > 100 µM (inactive) | GI50 [27]: > 100 µM (inactive) | GI50 [28]: > 100 µM (inactive) | GI50 [29]: > 100 µM (inactive) | GI50 [30]: > 100 µM (inactive) | GI50 [31]: 30.5 µM (inactive) | GI50 [32]: > 100 µM (inactive) | GI50 [33]: 64.7 µM (inactive) | GI50 [34]: > 100 µM (inactive) | GI50 [35]: 48.5 µM (inactive) | GI50 [56]: > 100 µM (inactive) | GI50 [36]: > 100 µM (inactive) | GI50 [37]: > 100 µM (inactive) | GI50 [38]: > 100 µM (inactive) | GI50 [39]: > 100 µM (inactive) | GI50 [40]: > 100 µM (inactive) | GI50 [41]: > 100 µM (inactive) | GI50 [57]: > 100 µM (inactive) | GI50 [42]: > 100 µM (inactive) | GI50 [43]: > 100 µM (inactive) | GI50 [44]: > 100 µM (inactive) | GI50 [58]: > 100 µM (inactive) | GI50 [45]: > 100 µM (inactive) | GI50 [47]: > 100 µM (inactive) | GI50 [48]: > 100 µM (inactive) | GI50 [49]: > 100 µM (inactive) | GI50 [50]: > 100 µM (inactive) | GI50 [51]: > 100 µM (inactive) | GI50 [53]: > 100 µM (inactive)
